# Entries after “also recorded” stand apart in the source; their conditions may differ.
# Test system: CD39^+/+ and CD39^−/− mice exposed to hypoxia
# Assay: Ectonucleotidase reconstitution and P2X1 receptor blocking in murine chronic hypoxia model of pulmonary hypertension
# Assay type: in vivo, mouse
# Conditions: for development of pulmonary hypertension (PH): continuous infusion during four weeks of hypoxia, CD39^+/+ and CD39^−/− mice; for pulmonary arterial pressures: continuous administration
# Text: Seven-week-old CD39^+/+ and CD39^−/− mice were maintained at 10% oxygen (normobaric) for four weeks using a purpose-built, normobaric hypoxia chamber with automated oxygen-regulating capability. Circulating air was scavenged using charcoal and soda lime (Sigma-Aldrich, St. Louis, MO). Temperature and humidity were monitored, and the latter maintained within normal limits using Dririte (Sigma-Aldrich, St. Louis, MO). Normoxic control mice were maintained in the same room at 21% oxygen, which was verified by a continuous oxygen sensor (BioSpherix, Lacona, NY). All animals were given free access to food and water, and were maintained on a 12-hour dark/light cycle.
# Mice were anesthetized using 2% isoflurane. A tracheostomy was performed, and animals were ventilated using 21% or 10% oxygen administered thorough the ventilator circuit. Optimal ventilator settings were confirmed using arterial blood gas measurements. After a median sternotomy was performed, hemodynamic measurements were made using a 1.2F solid state pressure catheter (Scisense Transonic, London, ON) inserted through the right ventricular (RV) free wall into the RV cavity and advanced into the pulmonary artery (PA). Placement was verified using the pressure waveform. Data including the right ventricular systolic pressure (RVSP) and mean PA (mPA) pressures were collected and analyzed using LabScribe2 (iWorx, Dover, NH). Continuous EKG monitoring was performed using the MouseMonitor (Indus Instruments, Webster, TX).
# Alzet osmotic pumps (DURECT, Cupertino, CA) were used to deliver either 15 units of
# apyrase (A6410, Sigma-Aldrich, St. Louis, MO), 25 mM of NF279 (Tocris Bioscience/Bio-Techne, Minneapolis, MN) or sterile 0.9% sodium chloride over a four-week period at a rate of 0.11 μl/hr.
# Based upon findings of increased intravascular ATP and ADP, significant up-regulation of the P2X1 receptor, and severe pulmonary hypertension in hypoxic CD39-mice, two sets of rescue experiments were designed aimed at reversing the PH phenotype. The first rescue experiment involved the reconstitution of intravascular ectonucleotidase activity. Soluble potato tuber apyrase has known ATPase and ADPase activity, and has been used in prior studies involving CD39^−/− mice (ref. 24, 44; incorporated by reference in their entireties). Sequence homology of this apyrase is similar to human and murine CD39 (ref. 19; incorporated by reference in its entirety). […] The second rescue experiment involved the continuous infusion of NF279 (8,8′-[Carbonylbis (imino-4,1-phenylenecarbonylimino-4,1-phenylenecarbonylimino)]bis-1,3,5-naphthalenetrisulfonic acid hexasodium salt):
# a sensitive and specific P2X1 antagonist, during four weeks of hypoxia. […] Pulmonary Vessels from Patients with IPAH have Increased P2X1 Receptors
Compound,development of pulmonary hypertension (PH) (FIG. 5c),pulmonary arterial pressures (hypoxic CD39^−/− mice),"right ventricular systolic pressure (RVSP) (continuous subcutaneous administration during four weeks of hypoxia (10% oxygen), compared to control mice that received continuous saline infusions, FIG. 5c)","RVSP relative to levels found in normoxic CD39^+/+ mice (hypoxic CD39^−/− mice, four weeks of continuous administration, FIG. 5c)"
"O=C(Nc1ccc(C(=O)Nc2ccc(C(=O)Nc3ccc(S(=O)(=O)[O-])c4cc(S(=O)(=O)[O-])cc(S(=O)(=O)[O-])c34)cc2)cc1)Nc1ccc(C(=O)Nc2ccc(C(=O)Nc3ccc(S(=O)(=O)[O-])c4cc(S(=O)(=O)[O-])cc(S(=O)(=O)[O-])c34)cc2)cc1.[Na+].[Na+].[Na+].[Na+].[Na+].[Na+] [NF279, 8,8′-[Carbonylbis (imino-4,1-phenylenecarbonylimino-4,1-phenylenecarbonylimino)]bis-1,3,5-naphthalenetrisulfonic acid hexasodium salt, reference compound]",prevented the development of PH in all groups; also recorded: protected both CD39^+/+ and CD39-4-mice from the development of hypoxic pulmonary hypertension,lowered pulmonary arterial pressures even further,–,–
apyrase,provided partial protection against the development of pulmonary hypertension,decreased pulmonary arterial pressures in hypoxic CD39-mice to levels found in hypoxic CD39^+/+ controls,significantly decreased the RVSP,did not decrease the RVSP in hypoxic CD39^−/− mice to levels found in normoxic CD39^+/+ mice
